Patent US20030190357A1, “Compositions for delivery of a cortisol antagonist” (priority 2000, published 2003)

Assay: solubility of ketoconazole in oleic acid
Assay type: physicochemical
Settings: ambient room temperature, 48 h
Method: The solubility of ketoconazole in oleic acid was assessed at ambient room temperature using the method described in Example 1. Samples containing 5, 10, 15 and 33 wt. % of ketoconazole were mixed with oleic acid and the appearance of undissolved ketoconazole was investigated after 24 and 48 h. After 24 hours samples containing 5 wt. % ketoconazole were completely dissolved and after 48 h samples containing 10 wt. % of ketoconazole were completely homogenous and all ketoconazole was dissolved. Thus the solubility of ketoconazole in oleic acid is estimated to be about 10 wt. %.

solubility of ketoconazole in oleic acid: about 10 wt. %
Structure (SMILES): CC(=O)N1CCN(c2ccc(OCC3COC(Cn4ccnc4)(c4ccc(Cl)cc4Cl)O3)cc2)CC1 (stereo not shown) [ketoconazole, Ketoconazole]
